Structures are written as SMILES.

Usually melting point stands for the temperature of the solid-liquid transition.

For `C=c1oc(=O)c(=O)oc1=C`, the melting point stood at 44 °C.
As for `CSc1ccc([N+](=O)[O-])nc1`, the figure is 165 to 167 °C; as for `Cc1cc2cc(CN3CCCCCC3)cnc2cc1NC(=O)c1ccc(-c2ccc(Cl)s2)cc1`, 180 °C.
As to `O=[N+]([O-])CC1C2(CCCC1(c1ccccc1)c1ccccc1)OCCO2` (racemic), the melting point was 148 °C.
Consider `O=C1OC[C@@H](CF)N1c1nc(-c2ccc(Br)cc2)cs1`, for which the melting point lay in the range of 148 to 150 °C.
`CC1(C)Oc2cccc(S(N)(=O)=O)c2O1` gave a melting point of 100 to 112 °C.
The compound `CC(=O)Nc1nc(CCc2ccc(N)cc2)c(C(=O)NCc2ccc(S(C)(=O)=O)cc2)s1` showed a melting point of 78 to 80 °C.
In the case of `Cc1cc(NC(=O)NC(=O)c2ccccc2N2CCOCC2)ccc1Oc1ncc(Br)cn1`, the melting point was 67 to 70 °C.
`Cc1nc(COc2ccc(C[C@@H](C)[C@@H](C)Cc3ccc(OCc4csc(C)n4)c(OCc4csc(C)n4)c3)cc2OCc2csc(C)n2)cs1`: the melting point was 85 to 87 °C.
`O=S(N=Cc1ccccc1)c1nccnc1Cl` (stereo not given): the melting point fell in the range of 113 to 114 °C.
As for `CON=C(C(=O)OC)c1cccc(OC)c1`, the melting point lay in the range of 66 to 68 °C.
In turn, `CC(=O)c1cccc2ccc(CC(=O)O)cc12` returned a melting point of 131 to 132 °C.
For the compound `OCCC1Cc2ccccc2CN1C(=S)Nc1cccnc1` (racemic), the melting point was determined as 174 °C.
Take `CC(COc1c(-c2ccccc2)c(=O)[nH]c2cc(Cl)ccc12)=NO`: the melting point was 196 to 198 °C.
`CN(C)CC1CCCCN1CC(=O)N1c2ccccc2NC(=O)c2c1ccn2C` (stereo not given) had a melting point of 163 to 165 °C.
`CSC[C@H](Nc1cc(F)ccc1[N+](=O)[O-])C(=O)O`: the melting point amounted to 147 °C.
Compound `Cc1cc(SCc2cc(-c3ccc(C(F)(F)F)cc3)on2)c(Cl)cc1OCC(=O)O` yielded a melting point of 120 to 121 °C.
For the compound `N#CC1CN1C(=O)C1(c2ccc(Cl)cc2)CCCC1` (stereo not given), the melting point lay within 80 to 82 °C.
Compound `CCNC(=O)c1c([Si](C)(C)C)ccc(I)c1Cl` registered a melting point of 128 to 130 °C.
Compound `N#CCCNC(=O)c1cccc(-c2ccc3c(c2)N(CCc2cccc(C(F)(F)F)c2)CC3)c1` displayed a melting point of 197 to 198 °C.
In the case of `CS(=O)(=O)c1ccc(-n2nc(CO)cc2-c2ccc(-c3ccco3)cc2)cc1`, the melting point is 176 °C.
As for `N#Cc1ccc(NCC(=O)Nc2c(Cl)ccc3nc(N4CC[C@@H](O)C4)ccc23)cc1`, the figure is 230 to 233 °C; as for `CC(C)(C)c1cc(C2N(c3ccc(Cl)cc3)CCN2c2ccc(Cl)cc2)cc(C(C)(C)C)c1O`, 220 to 222 °C; as for `COC(=O)Cc1cc(C(=O)c2ccc(C#Cc3ccccc3)c(N)c2)sc1-c1ccccc1`, 146 to 148 °C.
In the case of `Cc1nc(C(Cl)(Cl)Cl)nc(O)c1Cl`, the melting point was 130 to 145 °C.
The compound `CCCCCc1c(-c2ccc(OC(F)F)c(OC3CC3)c2)[nH]c2cn[nH]c(=O)c12` showed a melting point of 191 to 193 °C.
As for `CNC(=O)c1cccc(Nc2nc(Nc3ccc4c(c3)C(C)(C)CCC(=O)N4)ncc2Cl)c1`, the figure is 184 °C; as for `COc1ccc(C)cc1C(=O)NCCc1ccc(CC(=O)O)cc1`, 148 to 150 °C.
With `CCOC(=O)c1nc(C2CC2)nc(N)c1C`, the melting point was 130 to 132 °C.
In the case of `CCCc1nccn1NCc1cc(C(C)(C)C)c(O)c(C(C)(C)C)c1`, the melting point was 122 to 123 °C.
For `CNC(=O)c1ccc(N2CCN(Cc3cnc4c(c3)[nH]c(=O)n3cccc43)CC2)cc1`, the melting point fell in the range of 286 to 289 °C.
The figure for `Nc1nc(-c2ccccc2)c(-c2ccnc(Nc3ccccc3)n2)s1` is 196 to 197 °C.
In turn, `CCCCc1cc2ccccc2c(Oc2ccc(/C=C/C(=O)O)cc2)c1-c1ccccc1` registered a melting point of 160 to 161 °C.
`O=C(Nc1cc(Cl)cc(Cl)c1)c1cc2ccccc2cc1O` registered a melting point of 254 to 255 °C.
The compound `CNc1nc(Br)cc(S(=O)(=O)c2ccc(N)cc2)n1` gave a melting point greater than 250 °C.
As for `CC1CCc2nc(=O)c(-c3ccccc3)cn21` (stereo not given), the figure is 178 °C.
For the compound `Cc1ccc(NCC2CCN(C3CCCCC3)CC2)c(C(=O)Nc2ccc(Cl)cn2)c1`, the melting point fell in the range of 179 to 182 °C.
Turning to `CCc1nc2ccccc2c(=O)n1CCNc1ccc(SC(C)(C)C(=O)O)cc1`, the melting point was in the range of 124 to 126 °C.
The compound `Cc1c(C2CCN(Cc3ccccc3)CC2)n[nH]c1-c1ccc(Cl)cc1` yielded a melting point of 188 to 190 °C.
`CC(C)(C)OC(=O)[C@H]1CC[C@@H](c2ccccn2)N1C(=O)CNC(=O)Nc1cccc(C(=O)O)c1` (racemic): the melting point is 174 °C.
As to `CCOC(=O)c1ccc(-c2c(F)ccc([N+](=O)[O-])c2F)cc1`, the melting point was in the range of 85 to 86.7 °C.
Compound `Cc1cc(F)ccc1C(O)(Cc1nnnn1C)c1ccc(F)cc1C` gave a melting point of 186 to 188 °C.
Compound `CSc1nn2c(N)cc(CN(C)C)nc2c1S(=O)(=O)c1ccccc1` displayed a melting point of 216 to 218 °C.
The figure for `CN1CCN(C2=Nc3ccccc3N3CCCc4cccc2c43)CC1` is 129 to 132 °C.
Consider `CC(OCCc1ccc(-c2ccc(Cl)cc2)cc1)C(=O)O` (stereo not given), for which the melting point fell in the range of 90 to 92 °C.
The compound `COC(=O)C=C1CCOc2ccc(Cl)cc21` had a melting point of 113 to 115 °C.
The compound `C/C(=C\c1ccc(Cc2cccnc2)cc1)C(=O)Oc1ccccc1` displayed a melting point of 52 to 53 °C.
`COc1cccc(C(=O)OCC2(COC(=O)c3cccc(OC)c3)c3ccccc3-c3ccccc32)c1` showed a melting point of 129 to 130 °C.
Turning to `Nc1nc(N)c2cc(CCc3ccccc3)ccc2n1`, the melting point lay within 178 to 180 °C.
The compound `COc1cccc2c(C)c3n(c(=O)c12)CCCS3` showed a melting point of 122 to 123 °C.
With `COCOCc1oc2c(OC)cccc2c1CCSC(c1ccccc1)c1ccccc1`, the melting point is 110 °C.
As to `CN(C)C1(c2cccs2)CC=C(c2[nH]c3ccccc3c2CCc2ccncc2)CC1` (stereo not given), the melting point fell in the range of 189 to 193 °C.
In turn, `O=C(NC1CCN(CCc2ccc(F)cc2)C1)C12CC3CC(CC(C3)C1)C2` (stereo not given) displayed a melting point of 114 to 116 °C.
`C1CNCCCNCCCNCCCNC1` came in with a melting point of 84 to 86 °C.
As for `NCc1nnc(-c2ncn3c2[C@@H]2CCCN2C(=O)c2sccc2-3)o1`, the figure is 214 to 216 °C.
The figure for `COc1cc(C=O)ccc1OCC1CO1` (stereo not given) is 56 to 58 °C.
For the compound `Cc1ccc(C)n1CCNC(=O)COc1ccc(Cl)cc1`, the melting point was 75 to 77 °C.
Consider `O=C(O)c1c(CN2CCC(c3ccccc3)(c3ccccc3)CC2)ncn1Cc1ccc(Cl)cc1`, for which the melting point was 135 to 136 °C.
Compound `CCCc1c(O)c(Cl)cc(C(C)=O)c1O` had a melting point of 96 °C.
`COCC(=O)N(c1c(C)ccc(CC(=O)Nc2cc(Cl)cc(Cl)c2)c1C)C(C)C(=O)OC` (stereo not given) returned a melting point of 126 to 128 °C.
`O=[N+]([O-])CCN1CCC(n2ccc(-c3ccc(F)cc3)c2-c2ccncc2)CC1` came in with a melting point of 172 to 173 °C.
`Cc1oc(-c2ccccc2)nc1CCOc1ccc(CCCO)cc1`: the melting point was 99 to 100 °C.
In the case of `C=CCC1(CCNC(=O)C2CC2)c2cc(OC)ccc2CCC12OCCO2` (stereo not given), the melting point was in the range of 94 to 95 °C.
In turn, `CC(C)n1nc(-c2c(OC3CCC3)nc(N)nc2-c2ccccc2)ccc1=O` displayed a melting point of 161 to 162 °C.
As for `COC(=O)c1cc2cc(Cl)c(Cl)cc2nc1Cl`, the melting point lay within 178 to 180 °C.
For the compound `NS(=O)(=O)NCc1csc2ccccc12`, the melting point came to 101 °C.
In the case of `O=CNC1=NN(c2ccccc2)C(c2ccc(Cl)cc2)C1` (stereo not given), the melting point lay in the range of 135 to 136 °C.
As for `O=C(O)Cc1sc(S)nc1-c1ccc(Cl)cc1`, the figure is 245 to 247 °C.
As for `O=C(c1cccnc1)n1nc(-c2ccc(Br)cc2)cc1C(F)(F)F`, the melting point was 150 to 152 °C.
Consider `CCOC(=O)c1ccc(-c2nn(Cc3ccccc3)c3ccccc23)o1`, for which the melting point lay in the range of 98 to 99 °C.
Regarding `Cc1ccc(-c2cc(C(=O)O)nn2Cc2ccc(C)c(Cl)c2)cc1C`, the melting point turned out to be 163 °C.
The figure for `COc1c(N2C[C@H]3[C@@H](F)CC[C@@]3(N)C2)c(F)cc2c(=O)c(C(=O)O)cn([C@@H]3C[C@@H]3F)c12` is 117 to 119 °C; for `COc1ccc(-c2nc(Cn3ccnn3)co2)cc1` it is 126 to 127 °C.
In the case of `COc1ccc2[nH]c(CCN(C)C)c(CSc3ccccc3)c2c1`, the melting point is 85 to 88 °C.
As for `CS(=O)(=O)C(=C1CN(C(c2ccccc2)c2ccccc2)C1)c1ccccc1F`, the melting point was determined as 188 °C.
The figure for `CCOC(=O)Nc1ccc(OC23CC4CC(CC(C4)C2)C3)cc1` is 116 to 118 °C; for `O=C(O)CC1c2ccccc2CCc2cc(Cl)ccc21` (stereo not given) it is 142 to 146 °C; for `O=S1(=O)NCN(C2CC2)c2c(C(F)(F)F)cccc21` it is 165 to 167 °C.
In turn, `O=C1NC2C3C=CC(C3)C12` (stereo not given) registered a melting point of 94 to 97 °C.
`Cc1cccc(CN2CCN(C(c3ccc(Cl)cc3)c3cccc(OCC(=O)O)c3)CC2)c1` (stereo not given) yielded a melting point of 114 to 120 °C.
The compound `O=c1oc(-c2ccccc2)cc(O)c1Sc1c(O)cc(-c2ccccc2)oc1=O` had a melting point greater than 240 °C.
Compound `COc1cccc(C2(C#N)CCN(C(=O)CN3CCN(c4cnccn4)CC3)CC2)c1` returned a melting point of 108 °C.
`COc1ccc2c(Cl)ccnc2c1` registered a melting point of 86 to 88 °C.
Compound `CCCCCOc1cc(C(=O)O)cc(S(N)(=O)=O)c1-c1ccccc1` returned a melting point of 152 to 155 °C.
As for `Cc1c(-c2ccncc2)oc2c1C(=O)OC(C)C2` (stereo not given), the melting point lay within 157 to 160 °C.
The compound `COc1nc2ccccc2c2c1ncn2CC(O)CO` (stereo not given) gave a melting point of 214 to 216 °C.
As for `COCCOc1ccc(CCC(=O)N(CCOC)S(N)(=O)=O)c(Oc2ncc(C(F)(F)F)cc2Cl)c1`, the melting point amounted to 101 °C.
Regarding `O=C(O)C=CC(=O)Nc1ccc2ncnc(Nc3cccc(Br)c3)c2c1`, the melting point fell in the range of 224 to 225 °C.
The compound `CCN1CCN(C(=O)Cc2ccc(I)cc2)CC1` returned a melting point of 81 to 83 °C.
The figure for `CC(C)c1c(C=O)c(-c2ccc(F)cc2)n2c1CCCC2` is 100 to 101 °C.

For the origin of these results see a melting point compilation (Tetko et al.; mined from patent text by program, amines drawn as free bases though some values may be those of a salt).
